Numbers after ± are expanded uncertainties.
Experiments:
[1] = 101.33 kPa, Liquid; for viscosity: Capillary tube (Ostwald / Ubbelohde) method; for mass density: Vibrating tube method
[2] = xn = mol fraction of the nth substance listed; conditions: 101 kPa, Liquid, x1 = 1; for viscosity: Capillary tube (Ostwald / Ubbelohde) method; for mass density: Vibrating tube method

Row | viscosity ([1]; 293.15 K) | mass density ([1]; 293.15 K) | viscosity ([1]; 303.15 K) | mass density ([1]; 303.15 K) | viscosity ([1]; 313.15 K) | mass density ([1]; 313.15 K) | viscosity ([1]; 323.15 K) | mass density ([1]; 323.15 K) | viscosity ([1]; 333.15 K) | mass density ([1]; 333.15 K) | viscosity ([2]; 293.15 K) | mass density ([2]; 293.15 K) | viscosity ([2]; 303.15 K) | mass density ([2]; 303.15 K) | viscosity ([2]; 313.15 K) | mass density ([2]; 313.15 K) | viscosity ([2]; 323.15 K) | mass density ([2]; 323.15 K) | viscosity ([2]; 333.15 K) | mass density ([2]; 333.15 K) | Structure (SMILES)
1 | 139.12 ± 8.7 mPa·s | 1205.1 ± 1.2 kg/m3 | 82.49 ± 5 mPa·s | 1198 ± 1.2 kg/m3 | 52.33 ± 3.1 mPa·s | 1190.8 ± 1.2 kg/m3 | 35.16 ± 2.1 mPa·s | 1183.7 ± 1.2 kg/m3 | 24.69 ± 1.5 mPa·s | 1176.8 ± 1.2 kg/m3 |  |  |  |  |  |  |  |  |  |  | CCCCn1cc[n+](C)c1.F[B-](F)(F)F [1-butyl-3-methylimidazolium tetrafluoroborate]
2 |  |  |  |  |  |  |  |  |  |  | 139.12 ± 8.7 mPa·s | 1205.1 ± 1.2 kg/m3 | 82.49 ± 5 mPa·s | 1198 ± 1.2 kg/m3 | 52.33 ± 3.1 mPa·s | 1190.8 ± 1.2 kg/m3 | 35.16 ± 2.1 mPa·s | 1183.7 ± 1.2 kg/m3 | 24.69 ± 1.5 mPa·s | 1176.8 ± 1.2 kg/m3 | CCCCn1cc[n+](C)c1.F[B-](F)(F)F [1-butyl-3-methylimidazolium tetrafluoroborate] + NCCO
3 | 23.65 ± 1.4 mPa·s | 1015.5 ± 1 kg/m3 | 14.75 ± 0.89 mPa·s | 1007.6 ± 1 kg/m3 | 9.78 ± 0.59 mPa·s | 999.7 ± 1 kg/m3 | 6.81 ± 0.41 mPa·s | 991.7 ± 1 kg/m3 | 4.99 ± 0.3 mPa·s | 983.6 ± 1 kg/m3 |  |  |  |  |  |  |  |  |  |  | NCCO [2-aminoethan-1-ol]
